Series [1] has as its system Paraphysoderma sedebokerensis. Briefly: Haematococcus pluvialis outdoor pond, PCR monitoring and treatment. Conditions: 1 ppm. As for the experimental part: A 200,000 liter outdoor pond is inoculated with Haematococcus pluvialis at an initial OD (750 nm) of ˜0.15 (pond P08). Growth of the microalgae is monitored daily by measuring the ash free dry weight of the culture. PCR monitoring is performed daily to detect the presence of the chytrid fungus Paraphysoderma sedebokerensis or close relatives using […] (SEQ ID NO. 38) and […] (SEQ ID NO. 39) as primers.
Initially, the Ct value for the pest is above the threshold of Ct=30. The measured Ct observed for P. sedebokerensis stays below Ct=30 and indicates a need for crop protective action. Once detected with a Ct<30, chlorothalonil is added at a concentration of 1 ppm. Daily monitoring is continued and the Ct observed for P. sedebokerensis increases above the Ct=30 threshold and remains above the threshold.

For series [2], the system named is Pest in infected Scenedesmus dimorphus culture. Briefly: Fungicide efficacy on pest control in infected microalgae culture. The format is cell-based. The note with it: for Rating: rating scale of 0 to 3 by percent efficacy. The text has this:
Failure to treat an infected culture results in the collapse and loss of the microalgae culture. […] Test fungicides are graded on a rating scale of 0 to 3 where a score of 0 represents an efficacy of between 0 and 25%, a score of 1 represents an efficacy of between 26 and 50%, a score of 2 represents an efficacy of between 51 and 75% and a score of 3 represents an efficacy of between 76 and 100%.

Series [3] has as its system Rhizophidium planktonicum. Put plainly: Arthrospira sp. outdoor pond, qPCR monitoring and treatment. Conditions: 1 ppm. As for the experimental part:
A 200,000 liter outdoor pond located in Las Cruces, N. Mex. is inoculated with Arthrospira sp. at an initial DW of 0.2 g/l. Growth of the microalgae is monitored daily by measuring the ash free dry weight of the culture. qPCR monitoring is performed daily to detect the presence of the chytrid fungus Rhizophidium planktonicum or close relatives using primers […] (SEQ ID NO. 40) and […] (SEQ ID NO. 41).
Initially, the Ct value for the pest is above the threshold of Ct=30. The measured Ct observed for R. planktonicum stays below Ct=30 and indicates a need for crop protective action. Once detected with a Ct<30, chlorothalonil is added at a concentration of 1 ppm. Daily monitoring is continued and the Ct observed for R. planktonicum increases above the Ct=30 threshold and remains above the threshold.
Background: Quantitative PCR measures a nucleic acid by following its amplification.

For series [4], the system named is desmid strain (UTEX 1237). Put plainly: Growth of uncontaminated laboratory microalgae culture with fungicide (OD 750 nm). The format is cell-based. Conditions: UTEX 1237, 32° C., OD 750 nm daily. As for the experimental part:
A desmid strain (UTEX 1237) is inoculated into 1 ml of media at an initial A750 of 0.15. […] These cultures are monitored daily for growth by measuring the optical density of the culture at 750 nm. If pests are detected, their genomic DNA is quantitated at the beginning and end of the experiment using the methods presented above. […]
A desmid strain (UTEX 1237) is inoculated into 1.0 ml of media IABR6 at an initial OD (A750) of 0.15. […] These cultures are monitored daily for growth by measuring the optical density of the culture at 750 nm. If pests are detected, their genomic DNA is quantitated at the beginning and end of the experiment using the methods presented above. […]
A desmid strain (UTEX 1237) is inoculated into 1 ml of media at an initial OD (750 nm) of 0.15. […] These cultures are monitored daily for growth by measuring the optical density of the culture at 750 nm. If pests are in these cultures their genomic DNA is quantitated at the beginning and end of the experiment. […]

Series [5] relates to chytrids known to infect the strain (desmid UTEX 1237). Put plainly: Growth of chytrid-inoculated microalgae culture with fungicide (OD 750 nm). The format is cell-based. As for the experimental part:
Microalgae cultures are prepared as described above and further inoculated with chytrids known to infect the strain, grown, and monitored as described above. […] In contrast, contaminated cultures grown in the presence of 250 ppb or higher concentrations of fluazinam are not affected by the presence of added chytrid. Fluazinam at a concentration of 100 ppb results in a stabilization of microalgae density at 0.8 ODU which is about 4 times the density of microalgae grown in the absence of fluazinam.
Microalgae cultures are prepared as described above and further inoculated with chytrids known to infect the strain, grown and monitored as described above. […] In contrast, contaminated cultures grown in the presence of 1 ppm or higher concentrations of Headline® are not affected by the presence of added chytrid contaminant. Headline® at a concentration of 0.5 ppm results in a stabilization of microalgae density at about 0.3 ODU which is about 2 times the density of microalgae grown in the absence of Headline®.
Microalgae cultures are prepared as described above and further inoculated with chytrids known to infect the strain, grown and monitored as described above. […] In contrast, contaminated cultures grown in the presence of 2 ppm or higher concentrations of Thiram® are not affected by the presence of added chytrid contaminant. Thiram® at a concentration of 1.0 ppm results in a stabilization of microalgae density at about 0.8 ODU which is about 4 times the density of microalgae grown in the absence of Thiram®.

Series [6] relates to pest FD100. Put plainly: 200,000 liter outdoor desmid pond P08, qPCR monitoring and treatment. The arrangement: species or system chytrid FD100. Conditions: 0.5 ppm added day 18 post-inoculation; through day 38. As for the experimental part: A 200,000 liter outdoor pond located in Las Cruces, N. Mex. is inoculated with a desmid strain at an initial OD (750 nm) of ˜0.15 (pond P08). Growth of the microalgae is monitored daily by measuring the ash free dry weight of the culture. PCR monitoring is performed daily to detect the presence of pests.
Initially, the Ct value for the pest is above the threshold of Ct=30 until day 15 (See, FIG. 14). The measured Ct observed for pest FD100 monitoring stays below Ct=30 and indicates a need for crop protective action. On day 18 post-inoculation, fluazinam is added at a concentration of 0.5 ppm. Daily monitoring is continued and the Ct observed for pest FD100 increases above the Ct=30 threshold and remains above the threshold through day 38.
Successful culture depends on the timely identification of a pest. On day 30, in response to a decrease in optical density of the culture, 1 ppm of pyraclostrobin is added.

Series [7] concerns chytrid pest. Put plainly: Outdoor ponds P16 and PA6 with or without fluazinam treatment. As for the experimental part:
Monitoring for chytrid pest and microalgae growth is performed as described in the examples above. In Pond 16 (P16), a signal for the presence of a chytrid pest is detected beginning on Day 8 using the universal primer pair to the methyltransferase gene (SEQ ID NOs: 30 and 31) and to the ITS gene (SEQ ID NOs: 32 and 33). At this point, 400 liters of P16 are inoculated into Pond A6 (PA6). Continuous detection of the presence of chytrid in pond P16 and A6, indicates a need for crop protection and 0.5 ppm of fluazinam is added on Day 11 to P16 but not PA6. Monitoring of the growth of microalgae is continued in both Pond 16 and Pond A6 using total organic carbon (TOC), OD(750), fluorescence, and a FlowCAM®.

For series [8], the system named is microalgae. Briefly: Ranges of microalgae toxicity (serial dilution of fungicide in growing culture). The note with it: range in which fungicide begins to show growth effects on microalgae. The text has this:
The present disclosure provides for the introduction of fungicides at an effective concentration. Effective concentrations may be determined according to manufacturer's instructions or may be determined empirically. An effective concentration of a fungicide is not toxic to the microalgae being cultured in the liquid system. Methods to determine toxicity are known in the art and include serial dilutions of a test fungicide in a growing liquid culture of microalgae. One of skill in the art would understand that different microalgae may have different ranges of toxicity that may be determined by growth of a microalga in the presence of a serial dilution of a fungicide.
Algae are screened for sensitivity to chemicals by preparing 180 ml of a log phase culture. The log phase culture is transferred into a 96 well microtiter plate at an absorbance at 750 nm (OD750 or A750) of ˜0.2. Twenty microliters of media is provided into the top row as a negative control, the middle six rows receive a 20 microliter dilution, which is a 10 fold dilution of the chemical at each transfer, of the chemical across an appropriate concentration gradient, and the bottom row receives 20 microliter of the solvent used to solubilize the pesticide alone as a control. The total volume per well is 200 μl. Each chemical is tested in triplicate. The growth of the algae is tracked daily by measuring the A750. After 8 days, the growth rate of the algae is measured by fitting the growth curve to a log model and deriving the maximum growth rate (r). The impact of the chemical is calculated by comparing the r of the algae at various dilutions of the pesticide to the control.

[9] abbreviates: Tetradesmus dimorphus, read-out: Scenedesmus dimorphus efficacy.
The mark [10] stands for this setting: fluazinam 100 ppb, contaminated culture.

A value given as a limit tells only on which side of the number the result lay.

Take `N#Cc1c(Cl)c(Cl)c(Cl)c(C#N)c1Cl` [chlorothalonil, 2,4,5,6-tetrachlorobenzene-1,3-dicarbonitrile]: the “Ct observed for P. sedebokerensis after treatment” value in series [1] is on record as > 30. Besides, in series [2] (@ 2 ppm, second trial), the “Scenedesmus dimorphus Efficacy confirmation” value came out at 75.7% @ 2 ppm. In addition, the activity at 2 ppm in series [2] (setting [9]) was determined as 84.5%. Also, the Rating in series [2] is 3 (a score of 3 represents an efficacy of between 76 and 100%). In series [3], the “Ct observed for R. planktonicum after treatment” value is recorded as > 30.
Take `O=[N+]([O-])c1cc(C(F)(F)F)c(Cl)c([N+](=O)[O-])c1Nc1ncc(C(F)(F)F)cc1Cl` [fluazinam, 3-chloro-N-[3-chloro-2,6-dinitro-4-(trifluoromethyl)phenyl]-5-(trifluoromethyl)-2-pyridinamine]: the “concentrations that do not significantly affect the growth of the uncontaminated microalgae culture” value in series [4] is given as “up to 2 ppm”. Moreover, in series [5] (UTEX 1237 inoculated with chytrids), the “concentration at which contaminated cultures are not affected by the presence of added chytrid” value is listed as ≥ 250 ppb. Moreover, in series [5] (setting [10]), the “density relative to microalgae grown in the absence of fungicide” value was “about 4 times” and the “stabilization of microalgae density” value was found to be 0.8 ODU. In series [2] (setting [9]), the activity at 0.8 ppm came out at 67%. In addition, the Rating in series [2] was 2 (a score of 2 represents an efficacy of between 51 and 75%). For the same compound, in series [6], the “Ct observed for pest FD100 after treatment” value was > 30. Moreover, in series [7] (0.5 ppm added on Day 11 to P16, untreated PA6 collapses), the “growth of microalgae in treated pond” value is given as “Logarithmic growth continues”. Besides, in series [7] (0.5 ppm, pond P16, increases in untreated PA6), the “fraction of infected cells after treatment” value is “stabilizes or decreases”. Further, in series [8], the “Ranges of Microalgae toxicity” value is reported as >7.5 ppm.

(Values after patent US20140378513A1, “USE OF FUNGICIDES IN LIQUID SYSTEMS” (priority 2011, published 2014).)
